According to the NIST ThermoML archive (doi:10.1021/je060271a):

Conditions: 343.15 K, Liquid, Vibrating tube method

CCCC(=O)OCC(COC(=O)CCC)(COC(=O)CCC)COC(=O)CCC [pentaerythritol tetrabutyrate]
Conditions	mass density [kg/m3]
20390 kPa	1023.3
20430 kPa	1023.3
20478 kPa	1023.4
20526 kPa	1023.4
20575 kPa	1023.5
20625 kPa	1023.5
20668 kPa	1023.6
20718 kPa	1023.5
20770 kPa	1023.6
20824 kPa	1023.8
20870 kPa	1023.6
20921 kPa	1023.6
20960 kPa	1023.7
20996 kPa	1023.8
21033 kPa	1023.8
21064 kPa	1023.8
21100 kPa	1023.9
21137 kPa	1023.9
21173 kPa	1023.9
21204 kPa	1023.9
21241 kPa	1024
21279 kPa	1024
21316 kPa	1024.1
21354 kPa	1024.1
21386 kPa	1024.2
21424 kPa	1024.1
21463 kPa	1024.1
21495 kPa	1024.1
21534 kPa	1024.1
21572 kPa	1024.2
21612 kPa	1024.2
21645 kPa	1024.2
21684 kPa	1024.3
21723 kPa	1024.3
21763 kPa	1024.3
21802 kPa	1024.2
21835 kPa	1024.3
21876 kPa	1024.4
21916 kPa	1024.4
21956 kPa	1024.4
21990 kPa	1024.5
22030 kPa	1024.5
22071 kPa	1024.4
22112 kPa	1024.5
22146 kPa	1024.5
22187 kPa	1024.5
22220 kPa	1024.6
22268 kPa	1024.5
22310 kPa	1024.7
22344 kPa	1024.7
22387 kPa	1024.8
22429 kPa	1024.7
22472 kPa	1024.8
22507 kPa	1024.8
22548 kPa	1024.8
22591 kPa	1024.7
22634 kPa	1024.9
22670 kPa	1024.9
22714 kPa	1025
22756 kPa	1025
22799 kPa	1024.9
22842 kPa	1025
22886 kPa	1024.9
22970 kPa	1025.2
23014 kPa	1025.2
23052 kPa	1025.2
23097 kPa	1025.2
23142 kPa	1025.2
23180 kPa	1025.2
23226 kPa	1025.3
23270 kPa	1025.4
23317 kPa	1025.4
23355 kPa	1025.3
23400 kPa	1025.4
23447 kPa	1025.5
23494 kPa	1025.6
23535 kPa	1025.4
23582 kPa	1025.6
23630 kPa	1025.6
23676 kPa	1025.6
23716 kPa	1025.7
23763 kPa	1025.7
24094 kPa	1025.8
24137 kPa	1026
24186 kPa	1026
24236 kPa	1025.8
24278 kPa	1026.1
24328 kPa	1026
24379 kPa	1026
24431 kPa	1026.1
24484 kPa	1026.1
24528 kPa	1026.2
24578 kPa	1026.2
24621 kPa	1026.3
24665 kPa	1026.2
24708 kPa	1026.3
24745 kPa	1026.3
24788 kPa	1026.3
24833 kPa	1026.2
24870 kPa	1026.4
24915 kPa	1026.4
24959 kPa	1026.4
25004 kPa	1026.4
25049 kPa	1026.5
25086 kPa	1026.6
25132 kPa	1026.5
25176 kPa	1026.6
25223 kPa	1026.7
25270 kPa	1026.7
25308 kPa	1026.7
25354 kPa	1026.8
25401 kPa	1026.7
25439 kPa	1026.8
25486 kPa	1026.9
25532 kPa	1026.7
25579 kPa	1026.8
25625 kPa	1026.9
25665 kPa	1027
26228 kPa	1027.4
26277 kPa	1027.4
26328 kPa	1027.3
26378 kPa	1027.4
26422 kPa	1027.5
26476 kPa	1027.5
26521 kPa	1027.6
26574 kPa	1027.5
26957 kPa	1027.8
27040 kPa	1027.8
27084 kPa	1027.9
27121 kPa	1027.9
27166 kPa	1028
27211 kPa	1027.9
27248 kPa	1027.9
27293 kPa	1028
27331 kPa	1028.1
27416 kPa	1028.1
27462 kPa	1028.2
27508 kPa	1028.2
27548 kPa	1028.2
27598 kPa	1028.2
27639 kPa	1028.3
27688 kPa	1028.2
27761 kPa	1028.4
27799 kPa	1028.6
27832 kPa	1028.3
27872 kPa	1028.4
27905 kPa	1028.5
27944 kPa	1028.4
27976 kPa	1028.5
28014 kPa	1028.6
28054 kPa	1028.6
28087 kPa	1028.5
28127 kPa	1028.6
28281 kPa	1028.7
28314 kPa	1028.6
28355 kPa	1028.7
28389 kPa	1028.6
28430 kPa	1028.9
28465 kPa	1028.7
28506 kPa	1028.8
28548 kPa	1028.9
28583 kPa	1028.8
28623 kPa	1028.9
28658 kPa	1029
28700 kPa	1028.9
28735 kPa	1029.1
28776 kPa	1029
28818 kPa	1029
28853 kPa	1029.1
28895 kPa	1029.1
28938 kPa	1029.2
28973 kPa	1029.2
29016 kPa	1029.2
29052 kPa	1029.3
29095 kPa	1029.1
29138 kPa	1029.2
29173 kPa	1029.4
29217 kPa	1029.4
29262 kPa	1029.3
29299 kPa	1029.4
29344 kPa	1029.3
29386 kPa	1029.4
29417 kPa	1029.3
29455 kPa	1029.4
29492 kPa	1029.5
29524 kPa	1029.5
29563 kPa	1029.6
29744 kPa	1029.6
29776 kPa	1029.7
29815 kPa	1029.6
29847 kPa	1029.7
29886 kPa	1029.7
29926 kPa	1029.8
29959 kPa	1029.8
29999 kPa	1029.8
30033 kPa	1030
30073 kPa	1029.8
30115 kPa	1029.9
30149 kPa	1029.9
30190 kPa	1029.9
30494 kPa	1030.1
30523 kPa	1030.1
30557 kPa	1030.2
30591 kPa	1030.2
30621 kPa	1030.3
30656 kPa	1030.2
30685 kPa	1030.1
30721 kPa	1030.3
30750 kPa	1030.3
30945 kPa	1030.3
30981 kPa	1030.5
31016 kPa	1030.3
31046 kPa	1030.5
31082 kPa	1030.5
31111 kPa	1030.5
31147 kPa	1030.5
31176 kPa	1030.6
31212 kPa	1030.4
31249 kPa	1030.7
31280 kPa	1030.7
31317 kPa	1030.6
31347 kPa	1030.6
31384 kPa	1030.8
31414 kPa	1030.8
31451 kPa	1030.8
31487 kPa	1030.8
31518 kPa	1030.8
31554 kPa	1030.8
31590 kPa	1030.9
31621 kPa	1030.9
31658 kPa	1031
31688 kPa	1030.9
31725 kPa	1030.9
31763 kPa	1031
31794 kPa	1031
31831 kPa	1030.9
31867 kPa	1031.1
31898 kPa	1031.1
31934 kPa	1031.1
31970 kPa	1031
32008 kPa	1031.1
32044 kPa	1031.1
32074 kPa	1031.1
32111 kPa	1031.4
32149 kPa	1031.2
32255 kPa	1031.2
32292 kPa	1031.2
32329 kPa	1031.2
32367 kPa	1031.2
32398 kPa	1031.5
32436 kPa	1031.5
32474 kPa	1031.3
32512 kPa	1031.3
32544 kPa	1031.4
32582 kPa	1031.4
32621 kPa	1031.5
32660 kPa	1031.4
32699 kPa	1031.6
32731 kPa	1031.5
32769 kPa	1031.5
32808 kPa	1031.6
32846 kPa	1031.6
32919 kPa	1031.6
32958 kPa	1031.8
33037 kPa	1031.7
33070 kPa	1031.8
33110 kPa	1031.7
33151 kPa	1031.7
33191 kPa	1031.8
33231 kPa	1032
33264 kPa	1031.8
33304 kPa	1032.1
33345 kPa	1032.1
33379 kPa	1032
33420 kPa	1032.1
33461 kPa	1032.1
33502 kPa	1032.1
33951 kPa	1032.4
33995 kPa	1032.4
34033 kPa	1032.3
34080 kPa	1032.5
34127 kPa	1032.4
34177 kPa	1032.6
34220 kPa	1032.5
34271 kPa	1032.6
34323 kPa	1032.5
34368 kPa	1032.6
34420 kPa	1032.7
34453 kPa	1032.7
34484 kPa	1032.7
34510 kPa	1032.7
34517 kPa	1032.7
34520 kPa	1032.8
